The numbers were not newly measured in patent US20110008412A1, “Oral Formulations for 5-HT-Receptor Agonists, Uses and Methods of Treatment Employing The Same” (CIPLA LIMITED, priority 2003, published 2011), which cites them from elsewhere.

Molecules are shown by their SMILES.

In the case of `CNS(=O)(=O)Cc1ccc2[nH]cc(CCN(C)C)c2c1` [sumatriptan, 3-[2-(dimethylamino)ethyl]-N-methyl-1H-indole-5-methanesulfonamide], the half-life entry (after subcutaneous and oral application) was “about 2 hours”. Where the note is “injected subcutaneously”, the bioavailability is listed as 96%.
